One compound from patent US20190224164A1, “COMPOSITIONS AND METHODS FOR TREATMENT OF COPD” (Bodor Laboratories, Inc., priority 2016, published 2019) can be followed below.

Structures are written as SMILES.

For this assay, the system named is acetylcholine-induced bronchoconstriction. In words: Acetylcholine induced bronchoconstriction in anesthetized guinea pigs. Type of assay: in vivo, guinea pig.

Protocol: Male Hartley guinea pigs (320±120 g) (Charles River) are housed under standard conditions. Guinea pigs are anesthetized with urethane (2 g/kg, intraperitoneally), the trachea are cannulated and the animal is respired using a small animal respiratory pump (Harvard Apparatus LTD, Kent UK). Respiratory back pressure is measured and recorded using a rodent lung function recording system (MUMED, London UK). For drug administration the right jugular vein is cannulated. Following the surgical procedure, guinea pigs are allowed to stabilize for 20 minutes. Ten minutes before acetylcholine administration, the animals are disconnected from the ventilator and either the vehicle (10 mg lactose) or different amounts of the drug (suspended in the same amount of vehicle) are administered intratracheally. The trachea is reconnected to the ventilator and changes in pulmonary mechanics are followed. Acetylcholine (10 μg/kg) is administered intravenously in every 10 minutes six times. Male Hartley guinea pigs (320±120 g) (Charles River) are housed under standard conditions. Guinea pigs are anesthetized with urethane (2 g/kg, intraperitoneally), the trachea are cannulated and the animal is respired using a small animal respiratory pump (Harvard Apparatus LTD, Kent UK). Respiratory back pressure is measured and recorded using a rodent lung function recording system (MUMED, London UK). […]

Take `C[N+]1(C)CCC(OC(=O)C(O)(c2ccccc2)C2CCCC2)C1` (centres unmarked) [glycopyrrolate]: the “protective effect on the acetylcholine-induced bronchoconstriction” value by setting is: (drug intratracheally ten minutes before acetylcholine (10 μg/kg i.v.)) “protective effect”; (ester and zwitterion or their combination products intratracheally, acetylcholine 10 μg/kg i.v.) “protective effect”.
